# Test results: patent publication US20170258871A1, “COMBINED USE OF A TRKA INHIBITOR AND AN EPHA2 INHIBITOR FOR USING IN THE TREATMENT OF SOLID CANCERS, AND METHOD FOR THE PROGNOSIS OF SURVIVAL OF A PATIENT WHO HAS A SOLID CANCER” (UNIVERSITE DES SCIENCES ET TECHNOLOGIES DE LILLE, priority 2014, published 2017)
# Legend:
# SQ20B cells = assay: In vitro invasion test (Boyden chamber), SQ20B; type: cell-based; details: NGF 16 nM or proNGF N.C. 0.5 nM, untreated cells = 100%
# Protocol: (§1) (0.5 nM) for a period of 20 hours. The untreated cells represent the control and determine a base invasion of 100%.
# (§2) The Boyden Chambers (Transwell®; BD Biosciences; France) were recovered from a biological matrix (type 1 collagen from rats diluted to 400 μg·mL-1 in EMEM-0.1% FCS medium; Millipore). The cells were then seeded with 100,000 cells/well on PET membranes (polyethylene terephtalate; dia.: 10.5 mm; porosity: 8 μm) of Boyden Chambers and held in an EMEM-0.1% FCS medium. […] (0.5 nM) in the lower part. After 20 hours of culture, they were washed twice with PBS 1× and fixed (ice cold methanol; 15 min; −20° C.). The non-invasive cells (upper face of the Transwell®) were eliminated by scraping. The number of cells was estimated after staining with Hoechst 33 258 (1 mM; 30 min; 20° C.) by counting the nuclei thereof using fluorescence microscopy on a total of 5 five randomly chosen fields (lens 10×; λ-excitation: 345 nm; λ-emission: 478 nm; Eclipse Ti) using the ImageJ software. Each experiment was performed in triplicate. Statistical analysis of the results was performed by analysis of variance ANOVA (Bonferroni post-hoc test).
# FaDu cells = assay: In vitro invasion test (Boyden chamber), FaDu; type: cell-based; details: NGF 16 nM or proNGF N.C. 0.5 nM, untreated cells = 100%
# Protocol: as §1, §2
# CAL27 cells = assay: In vitro invasion test (Boyden chamber), CAL 27; type: cell-based; details: NGF 16 nM or proNGF N.C. 0.5 nM, untreated cells = 100%
# Protocol: as §1, §2
# [1] = test system: MDA-MB-231 HA-TrkA tumours; assay: Xenograft of MDA-MB-231 HA-TrkA in SCID mice, tumour volume (Experiment 1); type: in vivo; details: 3 injections every 3 days from day 14; CEP-701 10 mg/kg intraperitoneal, siEphA2 7.5 microg/mouse close to the tumour
# Protocol: FIG. 9: A study of the inhibition of TrkA and EphA2 on tumour development in vivo. The tumours were developed without any intervention for 14 days and then subjected to 3 injections (every 3 days, black arrows) of solvent (control), CEP-701 (10 mg/kg), siEphA2 (7.5 microg/mouse) or CEP-701 (10 mg/kg) and siEphA2 (7.5 microg/mouse). The experiments were stopped 31 days after the first injection of the treatment for ethical considerations after the death of the control mice. A) The tumour volumes were evaluated by measuring the length (;) and the width (w) and then calculating the volume using the formula π/6×l×W×(l+w)/2; the Mann and Whitney test was carried out between the control group and CEP-701 (a), between the control groups and siEphA2 (b), between the control groups and CEP-701+siEphA2 (c), and between the groups siEphA2 and CEP-701+siEphA2 (d)*, P<0.05; **, P<0.01; ns: not significant. B) Study of the inhibition of the expression of receptors by siRNA on the overall survival of SCID mice. […] The tumour volumes were evaluated by measuring the length (l) and width (w) and then calculating the volume using the formula π/6×l×W×(l+w)/2. […] Significance was measured using the log-rank test (P=0.0022). […]
# Experiment 1: the mice used were six-week old SCID females. […] The tumour volume was measured according to the following formula: π/6×length×width×(width+length)/2. […]
substance,measurement,setting,value
NGF: Nerve Growth Factor; recombinant human β NGF supplied by Scil Proteins,cell invasion under growth factor,SQ20B cells,induced
same,cell invasion under growth factor,FaDu cells,did not respond
same,cell invasion under growth factor,CAL27 cells,did not respond
"siEphA2: siRNA against EphA2, GCAAGGAAGUGGUACUGCUGGACUU (SEQ ID NO: 1) (listed as RNA, chemistry not given here)",tumour volume / growth of xenografted tumours vs control,[1],strongly reduces the growth of xenografted tumours
